# Results published in patent publication US20110082130A1 (LIGAND PHARMACEUTICALS, INC., priority 2006, published 2011).
# Biological target: T1, chimeric human H3 receptor (Homo sapiens, UniProt Q9Y5N1)
# T1 construct: made in house; host or cells: Sf9 insect cells (baculovirus); P2 membrane preparation
# Experiment: Chimeric human H3 receptor screening GTP binding assay (inhibition of histamine-stimulated GTP-gamma35S binding, Example 8)
# Type: biochemical
# Conditions: Table II "Ki", symbol †, 4 μM of the compound, 1 μM histamine, read-out: percent inhibition of the signal obtained with 1 μM histamine
# Outline: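 Sf9 membranes co-expressing chimeric human H3 receptor and heterotrimeric G-protein, 35 μg per reaction, incubated 60 min at room temperature with 4 μM compound, 1 μM histamine, 10 μM GDP and […] GTP-gamma35S at pH 7.4. Filter-bound radioactivity counted. Result expressed as percent inhibition of the histamine signal after subtracting non-specific binding (10 μM GTP-gammaS).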
# T1 sequence (Q9Y5N1 with tags, fused parts or gaps): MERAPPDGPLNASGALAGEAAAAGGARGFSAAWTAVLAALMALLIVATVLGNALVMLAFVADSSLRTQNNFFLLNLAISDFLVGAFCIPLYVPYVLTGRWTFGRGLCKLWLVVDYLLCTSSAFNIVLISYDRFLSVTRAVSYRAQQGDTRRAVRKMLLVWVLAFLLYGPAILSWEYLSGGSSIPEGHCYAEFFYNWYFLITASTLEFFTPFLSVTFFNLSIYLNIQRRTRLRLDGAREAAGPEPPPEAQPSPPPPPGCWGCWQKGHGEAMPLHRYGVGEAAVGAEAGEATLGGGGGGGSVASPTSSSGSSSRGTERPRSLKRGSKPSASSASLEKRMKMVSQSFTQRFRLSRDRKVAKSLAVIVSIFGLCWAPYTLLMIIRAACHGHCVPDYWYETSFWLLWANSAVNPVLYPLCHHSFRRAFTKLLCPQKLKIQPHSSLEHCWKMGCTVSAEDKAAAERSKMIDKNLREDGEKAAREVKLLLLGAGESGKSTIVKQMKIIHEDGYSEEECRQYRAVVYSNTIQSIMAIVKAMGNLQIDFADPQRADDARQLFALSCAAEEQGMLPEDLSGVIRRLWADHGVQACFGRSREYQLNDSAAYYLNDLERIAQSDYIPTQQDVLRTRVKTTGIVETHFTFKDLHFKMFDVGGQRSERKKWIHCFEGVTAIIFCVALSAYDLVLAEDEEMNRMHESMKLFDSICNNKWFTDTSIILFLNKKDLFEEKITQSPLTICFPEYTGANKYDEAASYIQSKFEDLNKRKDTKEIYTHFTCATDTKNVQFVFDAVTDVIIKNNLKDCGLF
row,SMILES,inhibition at 4 µM [%]
1,COc1ccc(-c2ccc3c(c2)CCN(CC(=O)N2CCN(C4CCCCC4)CC2)C3)cc1 [Compound 522],≥ 90
2,"COc1ccc(-c2ccc3c(c2)CCN(CC(=O)N2CCN(C(C)C)CC2)C3)cc1 [Compound 523, 2-[2-(4-isopropylpiperazin-1-yl)-2-oxoethyl]-6-(4-methoxyphenyl)-1,2,3,4-tetrahydroisoquinoline]",≥ 90
3,"CCOc1ccc(-c2ccc3c(c2)CCN(CC(=O)N2CCN(C4CCCCC4)CC2)C3)cc1 [Compound 530, 2-[2-(4-cyclohexylpiperazin-1-yl)-2-oxoethyl]-6-(4-ethoxyphenyl)-1,2,3,4-tetrahydroisoquinoline]",≥ 90
4,"CCOc1ccc(-c2ccc3c(c2)CCN(CC(=O)N2CCN(C(C)C)CC2)C3)cc1 [Compound 531, 6-(4-ethoxyphenyl)-2-[2-(4-isopropylpiperazin-1-yl)-2-oxoethyl]-1,2,3,4-tetrahydroisoquinoline]",≥ 90
5,"CN(C)c1ccc(-c2ccc3c(c2)CCN(CC(=O)N2CCN(C4CCCCC4)CC2)C3)cc1 [Compound 534, 4-{2-[2-(4-cyclohexylpiperazin-1-yl)-2-oxoethyl]-1,2,3,4-tetrahydroisoquinolin-6-yl}-N,N-dimethylaniline]",≥ 90
6,"CC(C)N1CCN(C(=O)CN2CCc3cc(-c4ccc(N(C)C)cc4)ccc3C2)CC1 [Compound 535, 4-{2-[2-(4-isopropylpiperazin-1-yl)-2-oxoethyl]-1,2,3,4-tetrahydroisoquinolin-6-yl}-N,N-dimethylaniline]",≥ 90
7,"CN(C)c1cccc(-c2ccc3c(c2)CCN(CC(=O)N2CCN(C4CCCC4)CC2)C3)c1 [Compound 537, 3-{2-[2-(4-cyclopentylpiperazin-1-yl)-2-oxoethyl]-1,2,3,4-tetrahydroisoquinolin-6-yl}-N,N-dimethylaniline]",≥ 90
8,"CN(C)c1cccc(-c2ccc3c(c2)CCN(CC(=O)N2CCN(C4CCCCC4)CC2)C3)c1 [Compound 538, 3-{2-[2-(4-cyclohexylpiperazin-1-yl)-2-oxoethyl]-1,2,3,4-tetrahydroisoquinolin-6-yl}-N,N-dimethylaniline]",≥ 90
9,"CC(C)N1CCN(C(=O)CN2CCc3cc(-c4cccc(N(C)C)c4)ccc3C2)CC1 [Compound 539, 3-{2-[2-(4-isopropylpiperazin-1-yl)-2-oxoethyl]-1,2,3,4-tetrahydroisoquinolin-6-yl}-N,N-dimethylaniline]",≥ 90
10,"COc1ccc(-c2ccc3c(c2)CCN(CC(=O)N2CCN(C(C)C)CC2)C3)cc1C [Compound 543, 2-[2-(4-isopropylpiperazin-1-yl)-2-oxoethyl]-6-(4-methoxy-3-methylphenyl)-1,2,3,4-tetrahydroisoquinoline]",≥ 90
11,"CCCOc1ccc(-c2ccc3c(c2)CCN(CC(=O)N2CCN(C4CCCCC4)CC2)C3)cc1 [Compound 546, 2-[2-(4-cyclohexylpiperazin-1-yl)-2-oxoethyl]-6-(4-propoxyphenyl)-1,2,3,4-tetrahydroisoquinoline]",≥ 90
12,"CCCOc1ccc(-c2ccc3c(c2)CCN(CC(=O)N2CCN(C(C)C)CC2)C3)cc1 [Compound 547, 2-[2-(4-isopropylpiperazin-1-yl)-2-oxoethyl]-6-(4-propoxyphenyl)-1,2,3,4-tetrahydroisoquinoline]",≥ 90
13,"COc1ccc(-c2ccc3c(c2)CCN(CC(=O)N2CCN(C4CCC4)CC2)C3)c(C)c1 [Compound 548, 2-[2-(4-cyclobutylpiperazin-1-yl)-2-oxoethyl]-6-(4-methoxy-2-methylphenyl)-1,2,3,4-tetrahydroisoquinoline]",≥ 90
14,"COc1ccccc1-c1ccc2c(c1)CCN(CC(=O)N1CCN(C3CCC3)CC1)C2 [Compound 551, 2-[2-(4-cyclobutylpiperazin-1-yl)-2-oxoethyl]-6-(2-methoxyphenyl)-1,2,3,4-tetrahydroisoquinoline]",≥ 90
15,"COc1ccc(C(C)C)cc1-c1ccc2c(c1)CCN(CC(=O)N1CCN(C3CCC3)CC1)C2 [Compound 554, 2-[2-(4-cyclobutylpiperazin-1-yl)-2-oxoethyl]-6-(5-isopropyl-2-methoxyphenyl)-1,2,3,4-tetrahydroisoquinoline]",≥ 90
16,"COc1ccc(Cl)cc1-c1ccc2c(c1)CCN(CC(=O)N1CCN(C3CCC3)CC1)C2 [Compound 557, 6-(5-chloro-2-methoxyphenyl)-2-[2-(4-cyclobutylpiperazin-1-yl)-2-oxoethyl]-1,2,3,4-tetrahydroisoquinoline]",≥ 90
17,"COc1ccc(OC)c(-c2ccc3c(c2)CCN(CC(=O)N2CCN(C(C)C)CC2)C3)c1 [Compound 562, 6-(2,5-dimethoxyphenyl)-2-[2-(4-isopropylpiperazin-1-yl)-2-oxoethyl]-1,2,3,4-tetrahydroisoquinoline]",≥ 90
18,"CCOc1ccccc1-c1ccc2c(c1)CCN(CC(=O)N1CCN(C3CCC3)CC1)C2 [Compound 566, 2-[2-(4-cyclobutylpiperazin-1-yl)-2-oxoethyl]-6-(2-ethoxyphenyl)-1,2,3,4-tetrahydroisoquinoline]",≥ 90
19,"CCOc1ccccc1-c1ccc2c(c1)CCN(CC(=O)N1CCN(C3CCCC3)CC1)C2 [Compound 567, 2-[2-(4-cyclopentylpiperazin-1-yl)-2-oxoethyl]-6-(2-ethoxyphenyl)-1,2,3,4-tetrahydroisoquinoline]",≥ 90
20,"CCOc1ccccc1-c1ccc2c(c1)CCN(CC(=O)N1CCN(C3CCCCC3)CC1)C2 [Compound 568, 2-[2-(4-cyclohexylpiperazin-1-yl)-2-oxoethyl]-6-(2-ethoxyphenyl)-1,2,3,4-tetrahydroisoquinoline]",≥ 90

# Continued, values first:
row,inhibition at 4 µM [%],SMILES
1,≥ 90,"COc1ccc(-c2ccc3c(c2)CCN(CC(=O)N2CCN(C4CCCCC4)CC2)C3)cc1C [Compound 542, 2-[2-(4-cyclohexylpiperazin-1-yl)-2-oxoethyl]-6-(4-methoxy-3-methylphenyl)-1,2,3,4-tetrahydroisoquinoline]"
2,≥ 90,"COc1ccc(-c2ccc3c(c2)CCN(CC(=O)N2CCN(C4CCCC4)CC2)C3)c(C)c1 [Compound 549, 2-[2-(4-cyclopentylpiperazin-1-yl)-2-oxoethyl]-6-(4-methoxy-2-methylphenyl)-1,2,3,4-tetrahydroisoquinoline]"
3,≥ 90,"COc1ccc(-c2ccc3c(c2)CCN(CC(=O)N2CCN(C4CCCCC4)CC2)C3)c(C)c1 [Compound 550, 2-[2-(4-cyclohexylpiperazin-1-yl)-2-oxoethyl]-6-(4-methoxy-2-methylphenyl)-1,2,3,4-tetrahydroisoquinoline]"
4,≥ 90,"COc1ccccc1-c1ccc2c(c1)CCN(CC(=O)N1CCN(C3CCCC3)CC1)C2 [Compound 552, 2-[2-(4-cyclopentylpiperazin-1-yl)-2-oxoethyl]-6-(2-methoxyphenyl)-1,2,3,4-tetrahydroisoquinoline]"
5,≥ 90,"COc1ccccc1-c1ccc2c(c1)CCN(CC(=O)N1CCN(C3CCCCC3)CC1)C2 [Compound 553, 2-[2-(4-cyclohexylpiperazin-1-yl)-2-oxoethyl]-6-(2-methoxyphenyl)-1,2,3,4-tetrahydroisoquinoline]"
6,≥ 90,"COc1ccc(C(C)C)cc1-c1ccc2c(c1)CCN(CC(=O)N1CCN(C3CCCC3)CC1)C2 [Compound 555, 2-[2-(4-cyclopentylpiperazin-1-yl)-2-oxoethyl]-6-(5-isopropyl-2-methoxyphenyl)-1,2,3,4-tetrahydroisoquinoline]"
7,≥ 90,"COc1ccc(C(C)C)cc1-c1ccc2c(c1)CCN(CC(=O)N1CCN(C3CCCCC3)CC1)C2 [Compound 556, 2-[2-(4-cyclohexylpiperazin-1-yl)-2-oxoethyl]-6-(5-isopropyl-2-methoxyphenyl)-1,2,3,4-tetrahydroisoquinoline]"
8,≥ 90,"COc1ccc(Cl)cc1-c1ccc2c(c1)CCN(CC(=O)N1CCN(C3CCCCC3)CC1)C2 [Compound 558, 6-(5-chloro-2-methoxyphenyl)-2-[2-(4-cyclohexylpiperazin-1-yl)-2-oxoethyl]-1,2,3,4-tetrahydroisoquinoline]"
9,≥ 90,"COc1ccc(OC)c(-c2ccc3c(c2)CCN(CC(=O)N2CCN(C4CCC4)CC2)C3)c1 [Compound 559, 2-[2-(4-cyclobutylpiperazin-1-yl)-2-oxoethyl]-6-(2,5-dimethoxyphenyl)-1,2,3,4-tetrahydroisoquinoline]"
10,≥ 90,"COc1ccc(OC)c(-c2ccc3c(c2)CCN(CC(=O)N2CCN(C4CCCC4)CC2)C3)c1 [Compound 560, 2-[2-(4-cyclopentylpiperazin-1-yl)-2-oxoethyl]-6-(2,5-dimethoxyphenyl)-1,2,3,4-tetrahydroisoquinoline]"
11,≥ 90,"COc1ccc(OC)c(-c2ccc3c(c2)CCN(CC(=O)N2CCN(C4CCCCC4)CC2)C3)c1 [Compound 561, 2-[2-(4-cyclohexylpiperazin-1-yl)-2-oxoethyl]-6-(2,5-dimethoxyphenyl)-1,2,3,4-tetrahydroisquinoline]"
12,≥ 90,"COc1ccc(-c2ccc3c(c2)CCN(CC(=O)N2CCN(C4CCC4)CC2)C3)c(OC)c1 [Compound 563, 2-[2-(4-cyclobutylpiperazin-1-yl)-2-oxoethyl]-6-(2,4-dimethoxyphenyl)-1,2,3,4-tetrahydroisoquinoline]"
13,≥ 90,"COc1ccc(-c2ccc3c(c2)CCN(CC(=O)N2CCN(C4CCCC4)CC2)C3)c(OC)c1 [Compound 564, 2-[2-(4-cyclopentylpiperazin-1-yl)-2-oxoethyl]-6-(2,4-dimethoxyphenyl)-1,2,3,4-tetrahydroisoquinoline]"
14,≥ 90,"COc1ccc(-c2ccc3c(c2)CCN(CC(=O)N2CCN(C4CCCCC4)CC2)C3)c(OC)c1 [Compound 565, 2-[2-(4-cyclohexylpiperazin-1-yl)-2-oxoethyl]-6-(2,4-dimethoxyphenyl)-1,2,3,4-tetrahydroisoquinoline]"
